Experimental data published in ChEMBL document CHEMBL5512646, “Synthesis, kinase inhibition and anti-leukemic activities of diversely substituted indolopyrazolocarbazoles” (Eur J Med Chem, 2024).

What was measured:
MOLM-13 = test: Cytotoxicity against human MOLM-13 cells assessed as induction of cell death incubated for 24 hrs by WST-1 assay; conditions: MOLM-13, 24 h
HCT-116 = test: Cytotoxicity against human HCT-116 cells assessed as inhibition of cell growth incubated for 24 hrs by MTT assay; format: functional, cell-based; conditions: HCT-116, 24 h
[1] = molecular target: Serine/threonine-protein kinase pim-2 (Homo sapiens, UniProt Q9P1W9); test: Inhibition of PIM-2 (unknown origin)
Sequence of Serine/threonine-protein kinase pim-2 (Q9P1W9 whole entry): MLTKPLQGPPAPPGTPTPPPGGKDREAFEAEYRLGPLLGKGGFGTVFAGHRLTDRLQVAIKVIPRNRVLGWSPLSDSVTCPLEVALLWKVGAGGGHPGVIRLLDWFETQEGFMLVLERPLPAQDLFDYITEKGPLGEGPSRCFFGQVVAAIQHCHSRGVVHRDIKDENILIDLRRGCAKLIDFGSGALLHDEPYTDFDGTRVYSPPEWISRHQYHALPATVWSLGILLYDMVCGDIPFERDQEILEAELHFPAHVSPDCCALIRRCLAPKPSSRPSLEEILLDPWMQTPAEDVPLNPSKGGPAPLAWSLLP

[2] = molecular target: Serine/threonine-protein kinase N2 (Homo sapiens, UniProt Q16513); test: Inhibition of human PRK2 using ISDELMDATFADQEAKKK as substrate in presence of ATP
Sequence of Serine/threonine-protein kinase N2 (Q16513 whole entry): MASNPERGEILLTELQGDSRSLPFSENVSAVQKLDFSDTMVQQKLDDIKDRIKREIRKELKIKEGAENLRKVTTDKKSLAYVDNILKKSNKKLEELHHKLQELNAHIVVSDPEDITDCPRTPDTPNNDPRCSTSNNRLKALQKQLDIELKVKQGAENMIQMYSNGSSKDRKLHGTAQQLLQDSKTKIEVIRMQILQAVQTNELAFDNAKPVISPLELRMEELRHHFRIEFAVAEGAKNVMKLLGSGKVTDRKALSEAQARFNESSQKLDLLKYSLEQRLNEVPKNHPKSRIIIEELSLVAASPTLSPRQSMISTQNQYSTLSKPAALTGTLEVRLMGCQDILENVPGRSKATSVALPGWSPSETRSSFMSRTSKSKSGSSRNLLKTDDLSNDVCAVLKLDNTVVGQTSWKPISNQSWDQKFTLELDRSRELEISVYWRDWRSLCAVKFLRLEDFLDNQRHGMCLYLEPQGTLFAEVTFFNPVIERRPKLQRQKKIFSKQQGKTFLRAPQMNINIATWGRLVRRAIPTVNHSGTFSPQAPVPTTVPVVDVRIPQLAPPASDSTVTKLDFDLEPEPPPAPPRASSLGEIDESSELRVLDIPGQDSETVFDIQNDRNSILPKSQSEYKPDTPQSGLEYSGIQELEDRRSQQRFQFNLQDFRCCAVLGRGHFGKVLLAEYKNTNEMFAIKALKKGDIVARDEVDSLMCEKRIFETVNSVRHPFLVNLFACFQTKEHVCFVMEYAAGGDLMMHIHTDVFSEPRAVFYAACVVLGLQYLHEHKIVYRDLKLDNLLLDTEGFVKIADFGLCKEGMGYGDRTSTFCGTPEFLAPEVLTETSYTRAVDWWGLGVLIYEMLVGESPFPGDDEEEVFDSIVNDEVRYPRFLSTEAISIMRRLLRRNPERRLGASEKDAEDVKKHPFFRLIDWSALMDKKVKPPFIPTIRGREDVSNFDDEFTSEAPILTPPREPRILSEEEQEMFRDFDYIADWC

[3] = molecular target: 5'-AMP-activated protein kinase catalytic subunit alpha-2 (Homo sapiens, UniProt P54646); test: Inhibition of human AMPK using HMRSAMSGLHLVKRR as substrate in presence of ATP
Sequence of 5'-AMP-activated protein kinase catalytic subunit alpha-2 (P54646 whole entry): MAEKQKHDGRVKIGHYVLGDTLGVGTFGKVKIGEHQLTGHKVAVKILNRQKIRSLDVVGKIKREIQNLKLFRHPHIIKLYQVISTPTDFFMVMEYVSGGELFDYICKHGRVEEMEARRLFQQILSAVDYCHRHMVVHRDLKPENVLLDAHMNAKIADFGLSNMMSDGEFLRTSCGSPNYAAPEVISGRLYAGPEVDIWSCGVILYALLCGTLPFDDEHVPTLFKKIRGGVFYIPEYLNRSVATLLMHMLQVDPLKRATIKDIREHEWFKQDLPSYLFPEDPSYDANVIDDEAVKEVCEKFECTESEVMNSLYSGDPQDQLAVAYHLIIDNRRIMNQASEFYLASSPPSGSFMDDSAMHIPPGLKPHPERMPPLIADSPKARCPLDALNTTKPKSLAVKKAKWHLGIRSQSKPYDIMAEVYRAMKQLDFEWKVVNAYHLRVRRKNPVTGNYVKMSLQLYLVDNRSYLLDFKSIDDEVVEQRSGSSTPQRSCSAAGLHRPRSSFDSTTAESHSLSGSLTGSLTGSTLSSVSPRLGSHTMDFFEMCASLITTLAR

[4] = molecular target: MAP/microtubule affinity-regulating kinase 3 (Homo sapiens, UniProt P27448); test: Inhibition of human MARK3 using ATPKKLNRTLSVA as substrate in presence of ATP
Sequence of MAP/microtubule affinity-regulating kinase 3 (P27448 whole entry): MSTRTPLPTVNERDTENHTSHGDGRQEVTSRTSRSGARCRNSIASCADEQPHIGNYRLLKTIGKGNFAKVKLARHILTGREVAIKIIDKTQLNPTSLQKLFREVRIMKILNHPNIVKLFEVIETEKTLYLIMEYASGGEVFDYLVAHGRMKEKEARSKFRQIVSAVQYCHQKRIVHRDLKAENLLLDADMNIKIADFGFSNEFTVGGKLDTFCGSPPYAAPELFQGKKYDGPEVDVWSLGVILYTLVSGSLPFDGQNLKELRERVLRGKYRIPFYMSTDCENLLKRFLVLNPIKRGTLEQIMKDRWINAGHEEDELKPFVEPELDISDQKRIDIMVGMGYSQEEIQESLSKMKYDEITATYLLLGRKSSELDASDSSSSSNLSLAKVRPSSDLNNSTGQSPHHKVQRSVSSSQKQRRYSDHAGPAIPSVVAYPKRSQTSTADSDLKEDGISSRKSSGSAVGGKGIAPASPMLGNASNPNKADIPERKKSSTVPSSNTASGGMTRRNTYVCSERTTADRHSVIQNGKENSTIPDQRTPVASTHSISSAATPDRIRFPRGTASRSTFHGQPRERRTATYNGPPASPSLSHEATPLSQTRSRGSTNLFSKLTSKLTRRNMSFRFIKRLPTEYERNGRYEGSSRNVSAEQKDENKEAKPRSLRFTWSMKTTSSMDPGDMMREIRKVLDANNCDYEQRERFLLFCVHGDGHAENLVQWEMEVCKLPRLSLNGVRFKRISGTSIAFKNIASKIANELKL

[5] = molecular target: Glycogen synthase kinase-3 beta (Homo sapiens, UniProt P49841); test: Inhibition of human GSK3beta using Poly Glut Tyr as substrate in presence of ATP
Sequence of Glycogen synthase kinase-3 beta (P49841 whole entry): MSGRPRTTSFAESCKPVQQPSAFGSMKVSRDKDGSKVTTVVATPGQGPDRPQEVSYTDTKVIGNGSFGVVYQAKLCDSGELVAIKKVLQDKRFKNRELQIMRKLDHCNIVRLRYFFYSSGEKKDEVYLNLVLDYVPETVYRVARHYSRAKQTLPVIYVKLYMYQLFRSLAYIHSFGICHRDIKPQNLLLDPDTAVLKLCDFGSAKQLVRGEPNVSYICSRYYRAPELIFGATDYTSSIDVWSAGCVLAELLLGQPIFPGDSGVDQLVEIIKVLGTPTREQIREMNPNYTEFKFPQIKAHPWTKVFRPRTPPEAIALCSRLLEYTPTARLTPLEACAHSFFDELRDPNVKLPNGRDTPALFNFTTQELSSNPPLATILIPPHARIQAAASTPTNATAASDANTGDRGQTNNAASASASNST

[6] = molecular target: T1, Tyrosine-protein kinase JAK3 (Homo sapiens, UniProt P52333); test: Inhibition of human JAK3 using MBP as substrate in presence of ATP
T1 sequence (P52333 whole entry): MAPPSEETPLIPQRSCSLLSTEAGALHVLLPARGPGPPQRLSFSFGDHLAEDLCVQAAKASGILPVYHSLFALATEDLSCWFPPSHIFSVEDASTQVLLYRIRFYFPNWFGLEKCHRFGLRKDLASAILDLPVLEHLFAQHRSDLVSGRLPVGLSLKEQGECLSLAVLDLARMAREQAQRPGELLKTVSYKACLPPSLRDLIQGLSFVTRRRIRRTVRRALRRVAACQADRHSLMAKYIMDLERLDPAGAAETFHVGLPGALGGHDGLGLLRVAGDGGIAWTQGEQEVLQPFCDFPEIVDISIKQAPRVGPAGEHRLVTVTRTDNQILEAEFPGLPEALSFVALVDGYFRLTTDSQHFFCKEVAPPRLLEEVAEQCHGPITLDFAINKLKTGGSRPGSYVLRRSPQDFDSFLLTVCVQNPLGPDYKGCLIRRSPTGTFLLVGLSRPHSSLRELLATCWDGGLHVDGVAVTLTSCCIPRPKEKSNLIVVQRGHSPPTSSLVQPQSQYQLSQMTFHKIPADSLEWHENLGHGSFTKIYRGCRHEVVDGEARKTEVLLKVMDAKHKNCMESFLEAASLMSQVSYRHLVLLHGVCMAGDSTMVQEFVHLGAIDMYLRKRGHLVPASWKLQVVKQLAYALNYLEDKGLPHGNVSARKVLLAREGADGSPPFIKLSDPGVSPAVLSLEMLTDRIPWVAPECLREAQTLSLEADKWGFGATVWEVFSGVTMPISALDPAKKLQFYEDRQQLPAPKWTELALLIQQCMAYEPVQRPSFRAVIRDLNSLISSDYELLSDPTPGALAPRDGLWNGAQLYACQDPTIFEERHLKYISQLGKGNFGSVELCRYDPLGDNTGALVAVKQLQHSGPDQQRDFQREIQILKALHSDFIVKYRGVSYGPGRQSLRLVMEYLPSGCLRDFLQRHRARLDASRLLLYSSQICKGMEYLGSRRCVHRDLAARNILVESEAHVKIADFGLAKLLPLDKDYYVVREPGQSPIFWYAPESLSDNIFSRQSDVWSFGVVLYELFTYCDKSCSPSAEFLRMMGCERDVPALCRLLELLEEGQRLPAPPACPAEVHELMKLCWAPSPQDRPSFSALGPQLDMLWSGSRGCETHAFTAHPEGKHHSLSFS

[7] = molecular target: Serine/threonine-protein kinase pim-1 (Homo sapiens, UniProt P11309)
Sequence of Serine/threonine-protein kinase pim-1 (P11309 whole entry): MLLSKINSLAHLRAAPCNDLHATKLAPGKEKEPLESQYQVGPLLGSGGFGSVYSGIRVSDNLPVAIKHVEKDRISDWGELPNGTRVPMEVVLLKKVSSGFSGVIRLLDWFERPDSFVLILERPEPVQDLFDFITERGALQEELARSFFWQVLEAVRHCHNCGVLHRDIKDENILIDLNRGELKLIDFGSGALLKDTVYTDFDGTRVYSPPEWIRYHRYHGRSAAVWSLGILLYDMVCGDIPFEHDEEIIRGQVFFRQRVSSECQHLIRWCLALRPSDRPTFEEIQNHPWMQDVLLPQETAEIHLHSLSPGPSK
Description: Inhibition of PIM-1 (unknown origin)

CCCCCn1c2ccccc2c2c3[nH]ncc3c3c4ccccc4[nH]c3c21
EC50 (MOLM-13): 15 µM

CCN(CC)CCCCn1c2ccccc2c2c3[nH]ncc3c3c4ccccc4[nH]c3c21
EC50 (MOLM-13): 4.3 µM

OC[C@H]1O[C@@H](n2c3ccccc3c3c4[nH]ncc4c4c5ccccc5[nH]c4c32)[C@H](O)[C@@H](O)[C@@H]1O
IC50 (HCT-116): 12 µM

NCCCCn1c2ccccc2c2c3[nH]ncc3c3c4ccccc4[nH]c3c21
EC50 (MOLM-13): 2.7 µM

CNCCCn1c2ccccc2c2c3cn[nH]c3c3c4ccccc4[nH]c3c21
IC50 [1]: 0.316 µM | IC50 [2]: 0.009 µM | IC50 [3]: 0.0144 µM | IC50 [4]: 0.024 µM | IC50 [5]: 0.128 µM | IC50 [6]: 0.041 µM | IC50 [7]: 0.045 µM

CN(C)CCCn1c2ccccc2c2c3[nH]ncc3c3c4ccccc4[nH]c3c21
EC50 (MOLM-13): 3.8 µM

OC[C@H]1O[C@@H](n2c3ccccc3c3c4cn[nH]c4c4c5ccccc5[nH]c4c32)[C@H](O)[C@@H](O)[C@@H]1O
IC50 (HCT-116): 11 µM

CCCCCn1c2ccccc2c2c3cn[nH]c3c3c4ccccc4[nH]c3c21
EC50 (MOLM-13): > 5 µM

CCCCn1c2ccccc2c2c3[nH]ncc3c3c4ccccc4[nH]c3c21
EC50 (MOLM-13): > 5 µM

OCCCCn1c2ccccc2c2c3[nH]ncc3c3c4ccccc4[nH]c3c21
EC50 (MOLM-13): 4.1 µM

CCN(CC)CCCn1c2ccccc2c2c3[nH]ncc3c3c4ccccc4[nH]c3c21
EC50 (MOLM-13): > 4 µM

NCCCn1c2ccccc2c2c3[nH]ncc3c3c4ccccc4[nH]c3c21
EC50 (MOLM-13): > 40 µM
